Results published in paper PMC7764243, “Alterins Produced by Oyster-Associated Pseudoalteromonas Are Antibacterial Cyclolipopeptides with LPS-Binding Activity” (Marine Drugs, 2020).
≈ marks a conversion by molar mass, not a printed value. Where two headings read alike, the source gives them in different places. *1 amine or outer side, *2 acyl side, *3 side chain or, on linkers, in order; H or OH if unused. Where a SMILES comes first, the peptide text is derived from it. Bridges are numbered along the chain shown (N, C = ends). [ ]: non-standard residue; d: D form. The star is where a group is joined. ξ: configuration not given here. Dab(3ξ-OH) = O=C([C@@H](N[*:1])C(O)CN[*:3])[*:2]; X1 = C/C=C(/N[*:1])C(=O)[*:2]; Lauroyl = CCCCCCCCCCCC(=O)*; Decanoyl = CCCCCCCCCC(=O)*; Dab = NCC[C@H](N)C(=O)O; X2 = CCCC/C=C\CCCC(=O)*

Key:
V. tapetis CECT 4600T = assay type: cell-based, Vibrio tapetis
Experimental: (§1) Antibacterial activity was assayed against a panel of micro-organisms including human and aquaculture pathogenic bacterial species. MICs were performed and defined according to internationally recognized standards (CLSI [21]). Polymyxin B (PMB), an antibiotic CLP produced by Paenibacillus polymyxa, was used as positive control. The major produced alterins, i.e., alt_952, alt_954, alt_970 and alt_980 were assayed against the whole panel of target cells while the minor ones were only tested against a few bacterial strains (Table 2).
(§2) The bacterial strains Aeromonas caviae CIP 7616, Aeromonas hydrophila CIP 7614, Escherichia coli ML35, Escherichia coli SBS 363, Salmonella enterica CIP 8297 and Yersinia ruckeri ATCC 29473 were grown in Tryptic Soy Broth. The marine bacterial strains Vibrio crassostreaeJ2–9, Vibrio tasmaniensisLGP32, Vibrio tapetis CECT 4600 were grown in Marine Broth. All of them were cultivated at optimal temperature according to ATCC and CIP specifications. The strain Vibrio parahaemolyticus13-028A/3 was grown at 28 °C in Tryptic Soy Broth supplemented in NaCl (20 g.L^−1) according to [47]. The strains Pseudoalteromonas sp. hCg-6 and hCg-42 were cultured using a synthetic medium containing: 17.11 g sucrose, 30 g sea salts (Sigma-S9883), 7.6 g K2HPO4, 3 g KH2PO4 and 20 mL MEM 50X (Dulbecco) per liter. The cultures were grown at 18 °C for 72 h with shaking (100 rpm).
(§3) MICs were determined using broth microdilution method according to [21]. To resume, antibacterial compounds ranging from 0.1 to 100 µM were assayed against the target bacteria in mid-logarithmic phase culture (1.10^6 UFC.mL^−1) in adapted culture medium according to the strain. MICs were examined by unaided eye after a 48h-incubation time at the optimal temperature growth. The lipopeptide PMB (Sigma-P4932) was used as antibiotic control.

Pseudoalteromonas hCg-42 = assay type: cell-based, Pseudoalteromonas sp.; conditions: 48 h
Experimental: as §1, §2, §3

Pseudoalteromonas hCg-6 = assay type: cell-based, Pseudoalteromonas sp.; conditions: 48 h
Experimental: as §1, §2, §3

V. harveyi ORM4 = assay type: cell-based, Vibrio harveyi
Experimental: as §1, §3

V. tasmaniensis LGP 32 = assay type: cell-based, Vibrio tasmaniensis; conditions: 48 h
Experimental: as §1, §2, §3

Y. ruckeri ATCC 29473 = assay type: cell-based, Yersinia ruckeri
Experimental: as §1, §2, §3

S. enterica CIP 8297 = assay type: cell-based, Salmonella enterica; conditions: broth microdilution, 0.1 to 100 µM, 1.10^6 UFC/mL, 48 h, read by unaided eye
Experimental: as §1, §2, §3

V. tasmaniensis LGP32 = test: Viability (cultivability, CFU count) in seawater; assay type: cell-based, Vibrio tasmaniensis; conditions: for cultivability loss of V. tasmaniensis (log reduction of CFU): 20 µM, 4 h incubation in sterile seawater, inoculum 1.10^6 UFC/mL, plated in duplicate
Experimental: As a first step, we have measured the antimicrobial activity of alt_952, alt_954, alt_970 and alt_980 against V. tasmaniensis LGP32 in seawater after a 4 hour-long incubation. […] The effects on membrane were also investigated under the same experimental conditions using live/dead bacterial viability kit for flow cytometry (Figure 6). A net cultivability loss of V. tasmaniensis (2-log reduction) was observed when incubated with alt_954 and alt_980 indicative of a bactericidal effect (Figure 7A). In these conditions, V. tasmaniensis was much less affected by alt_970 (1-log reduction) and not by alt_952 (Figure 7A).
[…] After a 4 h-long incubation, viable bacteria were counted. Diluted samples (50 µL) in sterile seawater were spread in duplicate on appropriate medium. Cultivable bacterial concentration (CFU mL^−1) was determined after overnight incubation at optimal growth temperature.

[1] = tested on: Vibrio tasmaniensis LGP32; test: Membrane potential, DiBAC4(3) flow cytometry; assay type: cell-based
Experimental: To assess alterin physiological impact on Gram-negative cells, flow cytometry analyses were implemented using Live/Dead cell viability assay and the membrane potential dye, DiBAC4(3) on V. tasmaniensis LGP32 treated as previously (i.e., […]).
The membrane potential of the target bacteria was analysed using the potential-sensitive probe Bis-1,3-Dibutylbarbituric AcideTrimethineOxonol, (DiBAC4(3), MolecularProbes). DiBAC4(3) was reconstituted in DMSO stock solution at 1mM and stocked at −20 °C until use. Samples (500 µL) were incubated with 1 µL of DiBAC4(3) stock solution for 10mn in the dark. Under the effect of depolarization cells accumulate DiBAC4(3), fluoresce bright green and can easily be detected by flow cytometry. After excitation at 488 nm cells with depolarized membrane become fluorescent and reemit at 516 nm recovery of the signal at FL1. Positive control of the initial sample is carried out with 20% alcohol.

P. aeruginosa ATCC 27853 = assay type: cell-based, Pseudomonas aeruginosa
Experimental: as §1, §3

E. coli SBS363 = assay type: cell-based, Escherichia coli; conditions: E. coli SBS363 (short-chain LPS); broth microdilution, 0.1 to 100 µM, 1.10^6 UFC/mL, 48 h, read by unaided eye
Experimental: as §1, §2, §3

E. coli ML35 = assay type: cell-based, Escherichia coli
Experimental: as §1, §2, §3

[2] = tested on: V. parahaemolyticus 13-028A/3; assay type: cell-based, Vibrio parahaemolyticus; conditions: broth microdilution, 0.1 to 100 µM, 1.10^6 UFC/mL, 48 h, read by unaided eye
Experimental: as §1, §2, §3

A. caviae CIP 7616 = assay type: cell-based, Aeromonas caviae; conditions: broth microdilution, 0.1 to 100 µM, 1.10^6 UFC/mL, 48 h, read by unaided eye
Experimental: as §1, §2, §3

A. hydrophila CIP 7614 = assay type: cell-based, Aeromonas hydrophila; conditions: A. hydrophila CIP 7614; broth microdilution, 0.1 to 100 µM, 1.10^6 UFC/mL, 48 h, read by unaided eye
Experimental: as §1, §2, §3

[3] = LPS binding, QCL-1000 chromogenic Limulus Amoebocyte Lysate (LAL) assay; set-up: species or system Escherichia coli; conditions: LPS 1 EU/mL pre-incubated with CLPs 0.01 to 10 µM, 15 min, 37 °C
Source text: To gain insights into LPS-alterin interactions, we used an endotoxin detection assay, the QCL-1000^TM Endpoint chromogenic Limulus Amoebocyte Lysate (LAL) assay (Lonza). We compared alt_954, alt_970 and alt_980 for their ability to bind LPS from E. coli O111:B4. All alterins bound to LPS in a dose-dependent manner, as indicated by the reduction of biologically active LPS with increasing alterins concentrations (Figure 4A). […] To examine alterin LPS-binding properties in more detail, we performed a surface plasmon resonance (SPR) assay using the Biacore technology (GE Healthcare). The SPR binding measurements were performed using the alt_954 and alt_970. PMB was used as a positive control. The CLPs were immobilized to a CM5 sensor chip surface and titrated with LPS. […] The dose-dependent effect observed (Figure 4B) highlights the LPS-binding properties of the alterins. Both LPS-binding assays, i.e., LAL and SPR, are fully agreeing for alt_954. Moreover, the LPS-binding properties of alterins followed the same general pattern as that of antibacterial activity.
The CLPs were assayed for their LPS-binding properties by using the QCL-1000 Limulus Amoebocyte Lysate kit (LAL-Lonza, Bâle, Switzerland) according to manufacturer instructions. […] Free LPS was then quantified according to the manufacturer’s instructions. […]

## C/C=C1/NC(=O)[C@@H](NC(=O)CCC/C=C\CCCC)C(O)CNC(=O)[C@H](C(O)CN)NC(=O)[C@H](C(O)CN)NC(=O)[C@H](CCCNC(=N)N)NC(=O)[C@H](CC(C)C)NC(=O)[C@H](CCN)NC1=O (stereo partly shown) [alt_952] (X2-[Dab(3ξ-OH)][X1][Dab]LR[Dab(3ξ-OH)][Dab(3ξ-OH)]; lactam 1-C)
V. tapetis CECT 4600T; CECT 4600, 48 h
  MIC: >100 µM
Pseudoalteromonas hCg-42
  MIC: >100 µM
Pseudoalteromonas hCg-6
  MIC: >100 µM
V. harveyi ORM4; ORM4, 48 h
  MIC: 12.5 µM (≈ 11.9 µg/mL)
V. tasmaniensis LGP 32
  MIC: 50 µM (≈ 47.7 µg/mL)
Y. ruckeri ATCC 29473; ATCC 29473, 48 h
  MIC: 0.4 µM (≈ 0.381 µg/mL)
S. enterica CIP 8297
  MIC: 6.25 µM (≈ 5.96 µg/mL)
V. tasmaniensis LGP32
  cultivability loss of V. tasmaniensis (log reduction of CFU): no antibacterial effect
V. tasmaniensis LGP32; 300 µM, 4 h in seawater (data not shown)
  cultivability loss of V. tasmaniensis: identical to those observed using alt_954 and alt_980 at 20 µM
[1]; 20 µM, 4 h in sterile seawater
  cells with depolarized membrane: around 55%
[1]; 300 µM, 4 h in seawater
  cells depolarization: 100%
P. aeruginosa ATCC 27853; ATCC 27853, 48 h
  MIC: 50 µM (≈ 47.7 µg/mL)
E. coli SBS363
  MIC: 0.8 µM (≈ 0.763 µg/mL)
E. coli ML35; ML35, 48 h
  MIC: 25 µM (≈ 23.8 µg/mL)

## C/C=C1/NC(=O)[C@@H](NC(=O)CCCCCCCCC)C(O)CNC(=O)[C@H](C(O)CN)NC(=O)[C@H](C(O)CN)NC(=O)[C@H](CCCNC(=N)N)NC(=O)[C@H](CC(C)C)NC(=O)[C@H](CCN)NC1=O (stereo partly shown) [alt_954] (Decanoyl-[Dab(3ξ-OH)][X1][Dab]LR[Dab(3ξ-OH)][Dab(3ξ-OH)]; lactam 1-C)
[2]
  MIC: 6.25 µM (≈ 5.97 µg/mL)
V. tapetis CECT 4600T; V. tapetis CECT 4600T, broth microdilution, 0.1 to 100 µM, 1.10^6 UFC/mL, 48 h, read by unaided eye
  MIC: >100 µM
A. caviae CIP 7616
  MIC: 5.5 µM (≈ 5.25 µg/mL)
Pseudoalteromonas hCg-42; Pseudoalteromonas hCg-42 (producing strain), broth microdilution, 0.1 to 100 µM, 1.10^6 UFC/mL, read by unaided eye
  MIC: >100 µM
Pseudoalteromonas hCg-6; Pseudoalteromonas hCg-6 (producing strain), broth microdilution, 0.1 to 100 µM, 1.10^6 UFC/mL, read by unaided eye
  MIC: >100 µM
V. harveyi ORM4; V. harveyi ORM4, broth microdilution, 0.1 to 100 µM, 1.10^6 UFC/mL, 48 h, read by unaided eye
  MIC: 1.4 µM (≈ 1.34 µg/mL)
V. tasmaniensis LGP 32; V. tasmaniensis LGP 32, broth microdilution, 0.1 to 100 µM, 1.10^6 UFC/mL, read by unaided eye
  MIC: 2.7 µM (≈ 2.58 µg/mL)
Y. ruckeri ATCC 29473; Y. ruckeri ATCC 29473, broth microdilution, 0.1 to 100 µM, 1.10^6 UFC/mL, 48 h, read by unaided eye
  MIC: 0.3 µM (≈ 0.287 µg/mL)
A. hydrophila CIP 7614
  MIC: 2.7 µM (≈ 2.58 µg/mL)
S. enterica CIP 8297
  MIC: 0.7 µM (≈ 0.669 µg/mL)
V. tasmaniensis LGP32
  cultivability loss of V. tasmaniensis (log reduction of CFU): 2 log
P. aeruginosa ATCC 27853; P. aeruginosa ATCC 27853, broth microdilution, 0.1 to 100 µM, 1.10^6 UFC/mL, 48 h, read by unaided eye
  MIC: 22 µM (≈ 21 µg/mL)
[3]
  LPS binding (reduction of biologically active LPS, LAL assay): more efficiently than alt_970
E. coli SBS363
  MIC: 0.2 µM (≈ 0.191 µg/mL)
E. coli ML35; E. coli ML35 (long-chain LPS), broth microdilution, 0.1 to 100 µM, 1.10^6 UFC/mL, 48 h, read by unaided eye
  MIC: 1.4 µM (≈ 1.34 µg/mL)

## C/C=C1/NC(=O)[C@@H](NC(=O)CCCCCCCCCCC)C(O)CNC(=O)[C@H](C(O)CN)NC(=O)[C@H](C(O)CN)NC(=O)[C@H](CCCNC(=N)N)NC(=O)[C@H](CC(C)C)NC(=O)[C@H](CCN)NC1=O (stereo partly shown) [alt_982] (Lauroyl-[Dab(3ξ-OH)][X1][Dab]LR[Dab(3ξ-OH)][Dab(3ξ-OH)]; lactam 1-C)
Y. ruckeri ATCC 29473; ATCC 29473, 48 h
  MIC: 12.5 µM (≈ 12.3 µg/mL)
E. coli SBS363
  MIC: 6.3 µM (≈ 6.19 µg/mL)
